Measurements published in the NIST ThermoML archive (doi:10.1016/j.jct.2012.07.007).

Experiments:
[1] = excess molar enthalpy (molar enthalpy of mixing); xn = mol fraction of the nth substance listed; conditions: 298.15 K, 101 kPa, Liquid, 2-drop calorimetry
[2] = xn = mol fraction of the nth substance listed; conditions: 101 kPa, Liquid; for speed of sound: Linear variable-path acoustic interferometer; for mass density: Vibrating tube method

Cc1ccncc1 [4-methylpyridine] + CCn1cc[n+](C)c1.F[B-](F)(F)F
[1]
Conditions | excess molar enthalpy [kcal/mol]
x2 = 0.111 | -0.0311
x2 = 0.1679 | -0.0454
x2 = 0.2098 | -0.0558
x2 = 0.2387 | -0.0624
x2 = 0.2909 | -0.0731
x2 = 0.3267 | -0.0788
x2 = 0.379 | -0.0873
x2 = 0.4167 | -0.0925
x2 = 0.4834 | -0.0997
x2 = 0.5267 | -0.104
x2 = 0.5908 | -0.106
x2 = 0.615 | -0.106
x2 = 0.6786 | -0.101
x2 = 0.7234 | -0.0974
x2 = 0.7945 | -0.0841
x2 = 0.8346 | -0.0723
x2 = 0.889 | -0.0539
x2 = 0.9267 | -0.0389

[2]
Conditions | mass density, 293.15 K [kg/m3] | mass density, 298.15 K [kg/m3] | mass density, 303.15 K [kg/m3] | mass density, 308.15 K [kg/m3] | speed of sound, 293.15 K [m/s] | speed of sound, 298.15 K [m/s] | speed of sound, 303.15 K [m/s] | speed of sound, 308.15 K [m/s]
x2 = 0.1211 | 1022.19 | 1017.25 | 1012.54 | 1008.4 | 1485 | 1464.4 | 1448.9 | 1428.2
x2 = 0.1734 | 1048.92 | 1043.93 | 1039.26 | 1035.43 | 1499.5 | 1479.3 | 1464.5 | 1443.7
x2 = 0.2215 | 1072.35 | 1067.26 | 1062.71 | 1059.13 | 1512.2 | 1492.7 | 1478.1 | 1457.6
x2 = 0.2738 | 1096.49 | 1091.32 | 1086.94 | 1083.63 | 1525 | 1506.5 | 1492.3 | 1472.9
x2 = 0.3226 | 1117.74 | 1112.6 | 1108.38 | 1105.18 | 1536.7 | 1519.3 | 1505.1 | 1486.3
x2 = 0.3709 | 1137.61 | 1132.52 | 1128.45 | 1125.39 | 1548 | 1531.8 | 1517.3 | 1499.9
x2 = 0.4215 | 1157.13 | 1152.2 | 1148.31 | 1145.11 | 1558.7 | 1543.8 | 1529.7 | 1514.7
x2 = 0.4721 | 1175.31 | 1170.56 | 1166.92 | 1163.65 | 1568.6 | 1554.4 | 1541.8 | 1528.9
x2 = 0.5207 | 1191.56 | 1186.91 | 1183.59 | 1180.05 | 1576.9 | 1564.8 | 1553 | 1542.6
x2 = 0.5728 | 1207.52 | 1203.15 | 1200.15 | 1196.14 | 1585.7 | 1573.8 | 1564.2 | 1557.1
x2 = 0.6218 | 1221.15 | 1217.12 | 1214.3 | 1209.95 | 1593.2 | 1582.3 | 1574.8 | 1570.3
x2 = 0.6731 | 1234.15 | 1230.36 | 1227.81 | 1222.97 | 1600.4 | 1589.4 | 1585.1 | 1582.7
x2 = 0.7224 | 1245.2 | 1241.78 | 1239.32 | 1234.16 | 1607 | 1595.7 | 1594.6 | 1593.7
x2 = 0.7743 | 1255.49 | 1252.28 | 1249.84 | 1244.37 | 1613 | 1601.8 | 1602.4 | 1603.4
x2 = 0.8203 | 1263.45 | 1260.27 | 1257.85 | 1252.23 | 1617.3 | 1606.3 | 1608.5 | 1609.8
x2 = 0.8717 | 1270.96 | 1267.85 | 1265.24 | 1259.65 | 1622.3 | 1610.6 | 1612.2 | 1612.8
x2 = 0.9111 | 1275.81 | 1272.56 | 1269.8 | 1264.37 | 1625.3 | 1613.4 | 1613.3 | 1611.5
x2 = 0.9312 | 1278 | 1274.64 | 1271.69 | 1266.47 | 1626.7 | 1614.9 | 1613.3 | 1609.7

c1ccncc1 [pyridine] + CCn1cc[n+](C)c1.F[B-](F)(F)F
[1]
Conditions | excess molar enthalpy [kcal/mol]
x2 = 0.1025 | -0.0352
x2 = 0.1335 | -0.0449
x2 = 0.1727 | -0.0555
x2 = 0.2121 | -0.067
x2 = 0.2654 | -0.0785
x2 = 0.3078 | -0.087
x2 = 0.3587 | -0.0968
x2 = 0.4112 | -0.101
x2 = 0.4632 | -0.107
x2 = 0.4956 | -0.108
x2 = 0.5325 | -0.108
x2 = 0.589 | -0.106
x2 = 0.6312 | -0.1
x2 = 0.6983 | -0.091
x2 = 0.7567 | -0.0806
x2 = 0.8078 | -0.0667
x2 = 0.8654 | -0.0505
x2 = 0.9123 | -0.0344

[2]
Conditions | mass density, 293.15 K [kg/m3] | mass density, 298.15 K [kg/m3] | mass density, 303.15 K [kg/m3] | mass density, 308.15 K [kg/m3] | speed of sound, 293.15 K [m/s] | speed of sound, 298.15 K [m/s] | speed of sound, 303.15 K [m/s] | speed of sound, 308.15 K [m/s]
x2 = 0.1225 | 1057.86 | 1053.89 | 1049.31 | 1044.82 | 1486.4 | 1466.7 | 1450.1 | 1431.5
x2 = 0.1781 | 1085.74 | 1081.91 | 1077.49 | 1073.08 | 1504.8 | 1486.7 | 1470.9 | 1453.6
x2 = 0.2349 | 1111.05 | 1107.24 | 1102.93 | 1098.58 | 1521.5 | 1505.5 | 1489.4 | 1473.3
x2 = 0.2787 | 1128.56 | 1124.75 | 1120.49 | 1116.15 | 1533.4 | 1517.7 | 1502.2 | 1487.6
x2 = 0.3215 | 1144.24 | 1140.37 | 1136.25 | 1131.85 | 1544 | 1528.8 | 1513.9 | 1499.2
x2 = 0.3716 | 1160.99 | 1156.91 | 1152.96 | 1148.63 | 1555.6 | 1541.1 | 1525 | 1512.2
x2 = 0.4229 | 1176.47 | 1172.38 | 1168.48 | 1164.16 | 1565.7 | 1550.9 | 1536.1 | 1523.5
x2 = 0.4723 | 1189.98 | 1185.87 | 1182.12 | 1177.75 | 1574 | 1560.4 | 1544.5 | 1533.1
x2 = 0.5213 | 1202.28 | 1198.15 | 1194.47 | 1190.17 | 1582.4 | 1568.3 | 1552.8 | 1541.1
x2 = 0.5731 | 1214.14 | 1209.97 | 1206.44 | 1202.2 | 1589.6 | 1575.5 | 1561.4 | 1549.5
x2 = 0.6212 | 1224.23 | 1220.11 | 1216.67 | 1212.48 | 1596.2 | 1582.6 | 1568.1 | 1557.4
x2 = 0.6719 | 1234.08 | 1230 | 1226.63 | 1222.55 | 1603.2 | 1589.2 | 1575.5 | 1564.3
x2 = 0.7224 | 1243.17 | 1239.16 | 1235.85 | 1231.85 | 1609.3 | 1595.2 | 1583.1 | 1571.5
x2 = 0.7737 | 1251.76 | 1247.81 | 1244.54 | 1240.61 | 1615.2 | 1601.3 | 1589.7 | 1578.5
x2 = 0.8219 | 1259.31 | 1255.42 | 1252.16 | 1248.26 | 1619.9 | 1607 | 1595.8 | 1584.8
x2 = 0.8764 | 1267.33 | 1263.49 | 1260.17 | 1256.28 | 1625.1 | 1612.2 | 1602 | 1590.5
x2 = 0.9223 | 1273.71 | 1269.86 | 1266.47 | 1262.53 | 1628.2 | 1616 | 1605.5 | 1594
x2 = 0.9349 | 1275.41 | 1271.55 | 1268.13 | 1264.16 | 1628.9 | 1616.8 | 1606.2 | 1594.8
